Test results reported in PMC4948780, “PARP Inhibitors in Clinical Use Induce Genomic Instability in Normal Human Cells” (PLoS ONE, 2016).

Tests used:
[1] = system: HMEC-hTERT; experiment: Clonogenic survival assay; format: cell-based; conditions: Homo sapiens, read-out: IC50 of olaparib, continuous exposure
Source text: (§1) Human mammary epithelial cell lines used included non-tumorigenic diploid MCF-10A, HMEC-hTERT and tumorigenic MDA-MB-468 (basal) and MCF-7 (luminal). […] Blood samples were obtained from normal donor participants. The participants provided written informed consent to IRB protocol #95–054 approved by the Institutional Review Board at MSKCC. The original signed consent is then sent to the research participant’s medical record and a copy of the consent is given to the participant. The EBV-transformed B-lymphocyte cell line (EBV-BL) was generated by transformation of peripheral blood mononuclear cells (PBMC) with the B95.8 strain of EBV, as previously described. Primary T cells were generated from PBMC from two normal donors by non-specific activation with phytohemagglutinin and cultured in RPMI1640 and human serum AB for 4–14 days before use. E14 mES cell line was provided by M. Hooper, Brca1^-/- 236.44 mES cell line was provided by B. H. Koller, Brca2^lex1/lex2 mES cell line was provided by P. Hasty and Lexicon Genetics. E14 wild-type, Brca1^-/- 236.44, and Brca2^lex1/lex2 mES cell lines were cultured in standard ES media. Brca1^-/- 236.44 cells express a BRCA1 peptide deleted for sequences encoded by exon 11 [52], while Brca2^lex1/lex2 cells express a BRCA2 peptide deleted for the terminal exon 27 [53]. […] Viable cells were scored by trypan blue exclusion.

[2] = system: MDA-MB-468; experiment: Clonogenic survival assay; format: cell-based; conditions: Homo sapiens, read-out: IC50 of olaparib, continuous exposure
Source text: as §1

[3] = system: MCF-7; experiment: Chromosomal aberrations on metaphase spreads (Giemsa); format: cell-based, human; conditions: 1 μM, 24 hrs
Experimental: (§2) To prepare metaphase spreads, exponentially growing cells were treated with 0.1–0.3 μg/ml of colcemid for 1–6 hr. Cells were collected and incubated in hypotonic solution (0.56% KCl), fixed in methanol: acetic acid (3:1), spotted to slides and air-dried. To measure chromosomal aberrations, the slides were stained with 2% Giemsa/Sorensen’s buffer. To visualize SCEs, the doubling time for each cell type was determined. Cells were incubated with 10 μM BrdU for two cell cycles. After metaphase spreads were prepared, the slides were treated with 0.5 μg/ml Hoechst 33258. The slides were exposed to black light for 20–60 min, incubated at 60°C for 2 hr, and stained in 4–10% Giemsa/Sorensen’s buffer.

[4] = system: primary T cell 1; experiment: as above; format: cell-based, human; conditions: 1 μM, 24 hrs
Experimental: as §2

[5] = system: MCF-10A; experiment: as above; format: cell-based, human; conditions: 1 μM, 24 hrs
Experimental: as §2

[6] = system: HMEC-hTERT; experiment: as above; format: cell-based, human; conditions: 1 μM, 24 hrs
Experimental: as §2

[7] = system: MDA-MB-468; experiment: as above; format: cell-based, human; conditions: 1 μM, 24 hrs
Experimental: as §2

[8] = system: EBV-BL; experiment: as above; format: cell-based, human; conditions: 1 μM, 24 hrs, 100 metaphases
Experimental: as §2

[9] = system: Brca2^lex1/lex2 mES cells; experiment: Clonogenic survival assay, mES cells; format: cell-based, mouse
Source text: (§3) Human mammary epithelial cell lines used included non-tumorigenic diploid MCF-10A, HMEC-hTERT and tumorigenic MDA-MB-468 (basal) and MCF-7 (luminal). […] Blood samples were obtained from normal donor participants. The participants provided written informed consent to IRB protocol #95–054 approved by the Institutional Review Board at MSKCC. The original signed consent is then sent to the research participant’s medical record and a copy of the consent is given to the participant. The EBV-transformed B-lymphocyte cell line (EBV-BL) was generated by transformation of peripheral blood mononuclear cells (PBMC) with the B95.8 strain of EBV, as previously described. Primary T cells were generated from PBMC from two normal donors by non-specific activation with phytohemagglutinin and cultured in RPMI1640 and human serum AB for 4–14 days before use. E14 mES cell line was provided by M. Hooper, Brca1^-/- 236.44 mES cell line was provided by B. H. Koller, Brca2^lex1/lex2 mES cell line was provided by P. Hasty and Lexicon Genetics. E14 wild-type, Brca1^-/- 236.44, and Brca2^lex1/lex2 mES cell lines were cultured in standard ES media. Brca1^-/- 236.44 cells express a BRCA1 peptide deleted for sequences encoded by exon 11 [52], while Brca2^lex1/lex2 cells express a BRCA2 peptide deleted for the terminal exon 27 [53]. […] Veliparib and BSI-201 were purchased from Chemie Tek. The compounds were dissolved in DMSO and PBS. For clonogenic survival assays, MCF-10A (1000 cells), HMEC-hTERT (1000 cells), MDA-MB-468 (1500 cells) and mouse ES cell (2000 cells) were seeded, vehicle control or inhibitors were added at the indicated concentration 24 hours after seeding and changed every three days for continuous treatment. At 7–14 days, colonies were fixed with methanol and stained with Giemsa. For EBV-BL (6 × 10^6) and primary T cells (3.6 × 10^6) were continuously exposed to the indicated concentration of drug for 10 days at 0.6 × 10^6 cells/ml. Viable cells were scored by trypan blue exclusion.

[10] = system: Brca1^-/- 236.44 mES cells; experiment: Clonogenic survival assay, mES cells; format: cell-based, mouse
Source text: as §3

[11] = 100 metaphases, radial and telomere association counted as two
[12] = Mus musculus, read-out: IC50 (clonogenic survival)

Question: For O=C(c1cc(Cc2n[nH]c(=O)c3ccccc23)ccc1F)N1CCN(C(=O)C2CC2)CC1 [olaparib], which IC50 [1] is on record?
Answer: 5.5 µM

Question: What about the IC50 [2] of the same compound?
Answer: 0.6 µM

Question: What about the “total chromatid-type aberrations / metaphase (mean ± SEM)” value [3] of the same compound?
Answer: 1.39 ± 0.14

Question: What about the chromatid-type radial chromosome ([3]; 100 metaphases) of the same compound?
Answer: 4

Question: And the chromatid-type telomere association ([3]; 100 metaphases)?
Answer: 1

Question: And the chromosome-type dicentric ([3]; 100 metaphases)?
Answer: 4

Question: What about the chromosome-type gap/break ([3]; 100 metaphases) of the same compound?
Answer: 8

Question: And the “total chromatid-type aberrations / metaphase (mean ± SEM)” value [4]?
Answer: 0.44 ± 0.07

Question: What about the chromatid-type radial chromosome ([4]; 100 metaphases) of the same compound?
Answer: 2

Question: And the chromatid-type telomere association ([4]; 100 metaphases)?
Answer: 0

Question: What about the chromosome-type dicentric ([4]; 100 metaphases) of the same compound?
Answer: 3

Question: And the chromosome-type gap/break ([4]; 100 metaphases)?
Answer: 0

Question: And the total chromatid-type aberrations [4, 11]?
Answer: 44

Question: And the “total chromatid-type aberrations / metaphase (mean ± SEM)” value [5]?
Answer: 0.22 ± 0.05

Question: And the chromatid-type radial chromosome ([5]; 100 metaphases)?
Answer: 0

Question: What about the chromatid-type telomere association ([5]; 100 metaphases) of the same compound?
Answer: 1

Question: What about the chromosome-type dicentric ([5]; 100 metaphases) of the same compound?
Answer: 0

Question: And the chromosome-type gap/break ([5]; 100 metaphases)?
Answer: 3

Question: And the total chromatid-type aberrations [5, 11]?
Answer: 22

Question: What about the “total chromatid-type aberrations / metaphase (mean ± SEM)” value [6] of the same compound?
Answer: 0.30 ± 0.07

Question: What about the chromatid-type radial chromosome ([6]; 100 metaphases) of the same compound?
Answer: 0

Question: And the chromatid-type telomere association ([6]; 100 metaphases)?
Answer: 0

Question: And the chromosome-type dicentric ([6]; 100 metaphases)?
Answer: 0

Question: What about the chromosome-type gap/break ([6]; 100 metaphases) of the same compound?
Answer: 4

Question: What about the total chromatid-type aberrations [6, 11] of the same compound?
Answer: 30

Question: And the “total chromatid-type aberrations / metaphase (mean ± SEM)” value [7]?
Answer: 0.67 ± 0.13

Question: What about the chromatid-type radial chromosome ([7]; 100 metaphases) of the same compound?
Answer: 5

Question: What about the chromatid-type telomere association ([7]; 100 metaphases) of the same compound?
Answer: 3

Question: And the chromosome-type dicentric ([7]; 100 metaphases)?
Answer: 4

Question: And the chromosome-type gap/break ([7]; 100 metaphases)?
Answer: 5

Question: And the total chromatid-type aberrations [7, 11]?
Answer: 67

Question: What about the chromatid-type radial chromosome [8] of the same compound?
Answer: 1

Question: And the chromatid-type telomere association [8]?
Answer: 0

Question: And the chromosome-type dicentric [8]?
Answer: 0

Question: What about the chromosome-type gap/break [8] of the same compound?
Answer: 1

Question: And the total chromatid-type aberrations ([8]; radial and telomere association counted as two)?
Answer: 44

Question: What about the IC50 [9, 12] of the same compound?
Answer: 0.013 µM

Question: And the “enhanced sensitivity of cells lacking wild-type BRCA2 vs wild-type cells” value ([9]; ratio of IC50, wild-type / Brca2^lex1/lex2)?
Answer: 46 fold

Question: And the IC50 [10, 12]?
Answer: 0.0025 µM

Question: What about the “enhanced sensitivity of cells lacking wild-type BRCA1 vs wild-type cells” value ([10]; ratio of IC50, wild-type / Brca1^-/- 236.44) of the same compound?
Answer: 240 fold
